{"source": "patent US5834506A", "about": "“Dihydropyrones with improved antiviral activity” (Warner-Lambert Company, priority 1997, dated 1998)", "key": {"HIV-1 protease": {"biological_target": "T1, HIV-1 protease (Human immunodeficiency virus type 1 group M subtype B, UniProt P04585)", "T1 construct": "Recombinant HIV-1 protease (>96% purity); purchased Bachem Bioscience Inc. (King of Prussia, PA)", "assay": "biochemical", "details": "6.0 nM HIV-1 protease, 40 μM substrate III, 37° C., 5 minutes; read-out: Inhib of HIV-Protease IC50", "excerpt": "The testing of specific 5,6-dihydropyrones as inhibitors of the HIV aspartyl protease, based on the study of the hydrolysis of an undecapeptide enzyme substrate, and the testing of the 5,6-dihydropyrones as inhibitors of viral growth and infectivity, based on the study of infection of H9 cell lines by the HIV-1iiib strain, are also disclosed. […] The methods employed follow the procedures of Tummino, et al. (Archives of Biochemistry and Biophysics 1995, 316, 523).\n(§1) The compounds of the present invention were evaluated for their in vitro inhibition of HIV-1 protease and for their antiviral efficacy in HIV infected lymphocytes.\nRecombinant HIV-1 protease (>96% purity) and HIV protease substrate III (the undecapeptide H-His-Lys-Ala-Arg-Val-Leu-Nph-Glu-Ala-Nle-Ser-NH2,>97% purity) were purchased from Bachem Bioscience Inc. (King of Prussia, PA).\nThe methods employed follow the procedures of Tummino, et al. (Archives of Biochemistry and Biophysics 1995, 316, 523). […] (total volume, 100 μl). […] The final inhibitor concentrations used were 0 (0.1, 0.2, in some experiments), 0.5, 1, 2, 5, 10, 20, 50, and 100 μM. The solution was mixed, incubated for 5 minutes and the reaction quenched by addition of trifluoracetic acid, 2% final. The (leu-p-nitro-phe) bond of the substrate is cleaved by the enzyme and substrate and products separated by reverse-phase HPLC. Absorbance was measured at 220 nm, peak areas determined, and percentage conversion to product used to calculate percentage control (=[% conversion (+inhibitor)/% conversion (-inhibitor)]×100)."}, "[1]": {"assay": "Cellular toxicity in uninfected CEM cells (TC50)", "format": "cell-based", "details": "human, inhibits 50% of the viability of uninfected cells", "method": "(§2) Compounds were tested in lymphocyte derived CEM cells using the XTT cytopathic procedures and were performed at Southern Research Institute (Buckheit, et. al. Antiviral Res. 1993, 21, 247; see also Weislow, et al. J Nat. Cancer Inst., 1989, 81, 577). Compound concentrations were 0.32, 1, 3.2, 10, 32 and 100 uM. The EC50 represents the concentration of agent which reduces HIV cytopathic effects 50% relative to untreated control. EC95 represents the concentration of agent protecting the cells 95% relative to untreated control. Cellular toxicity of the agents are estimated from the TC50 which represents the concentration of the agent which inhibits 50% of the viability of uninfected cells."}, "[2]": {"test_system": "HIV in lymphocyte derived CEM cells", "assay": "Cellular Infection Assay, antiviral efficacy in HIV infected CEM cells (XTT cytopathic procedure)", "format": "cell-based", "details": "Human immunodeficiency virus 1, CCRF-CEM, CEM cells; for EC95: protecting the cells 95% relative to untreated control; for EC50: reduces HIV cytopathic effects 50% relative to untreated control, read-out: Antiviral Efficacy EC50", "method": "as §1, §2"}}, "data": [{"compound": "CCNS(=O)(=O)Oc1cc(C(C)(C)C)c(SC2=C(O)CC(CCc3ccc(O)c(OC)c3)(c3ccc(OCCO)cc3)OC2=O)cc1C", "note": "(centres unmarked) [Example 48]", "values": [{"measurement": "IC50", "setting": "HIV-1 protease", "result": 0.0024, "unit": "µM"}, {"measurement": "CC50", "setting": "[1]", "result": "> 100", "unit": "µM"}, {"measurement": "EC95", "setting": "[2]", "result": 26, "unit": "µM"}, {"measurement": "EC50", "setting": "[2]", "result": 6.9, "unit": "µM"}]}, {"compound": "Cc1cc(SC2=C(O)CC(CCc3ccccc3)(c3ccc(OCCO)cc3)OC2=O)c(C(C)(C)C)cc1OS(=O)(=O)N1CCN(C)CC1", "note": "(centres unmarked) [Example 46]", "values": [{"measurement": "IC50", "setting": "HIV-1 protease", "result": 0.012, "unit": "µM"}, {"measurement": "CC50", "setting": "[1]", "result": 58, "unit": "µM"}, {"measurement": "EC95", "setting": "[2]", "result": 9.8, "unit": "µM"}, {"measurement": "EC50", "setting": "[2]", "result": 5.4, "unit": "µM"}]}, {"compound": "Cc1cc(SC2=C(O)CC(CCc3ccc(O)cc3)(c3ccccc3)OC2=O)c(C(C)(C)C)cc1CO", "note": "(centres unmarked) [Example 36, 3-(2-tert-Butyl-4-hydroxymethyl-5-methyl-phenylsulfanyl)-4-hydroxy-6-[2-(4-hydroxy-phenyl)-ethyl]-6-phenyl-5,6-dihydro-pyran-2-one]", "values": [{"measurement": "IC50", "setting": "HIV-1 protease", "result": 0.0016, "unit": "µM"}, {"measurement": "CC50", "setting": "[1]", "result": "> 100", "unit": "µM"}, {"measurement": "EC95", "setting": "[2]", "result": 20, "unit": "µM"}, {"measurement": "EC50", "setting": "[2]", "result": 4.7, "unit": "µM"}]}, {"compound": "Cc1cc(SC2=C(O)C[C@@](CCc3ccccc3)(c3ccccc3)OC2=O)c(C(C)(C)C)cc1CO", "note": "[Example 17, 3-(tert-Butyl4-hydroxymethyl-5-methyl-phenylsulfanyl)-4-hydroxy-6-phenethyl-6-phenyl-5,6-dihydro-pyran-2-one (S isomer)]", "values": [{"measurement": "IC50", "setting": "HIV-1 protease", "result": 0.0039, "unit": "µM"}, {"measurement": "CC50", "setting": "[1]", "result": 60, "unit": "µM"}, {"measurement": "EC95", "setting": "[2]", "result": 7.5, "unit": "µM"}, {"measurement": "EC50", "setting": "[2]", "result": 1.9, "unit": "µM"}]}, {"compound": "Cc1cc(SC2=C(O)CC(CCc3ccc(N)cc3)(c3ccccc3)OC2=O)c(C(C)(C)C)cc1CO", "note": "(centres unmarked) [Example 15, 6-[2-(4-aminophenyl)ethyl]-3-(2-tert-butyl-4-hydroxymethyl-5-methyl-phenylsulfanyl)-4-hydroxy-6-phenyl-5,6-dihydro-pyran-2-one]", "values": [{"measurement": "IC50", "setting": "HIV-1 protease", "result": 0.0031, "unit": "µM"}, {"measurement": "CC50", "setting": "[1]", "result": 94, "unit": "µM"}, {"measurement": "EC95", "setting": "[2]", "result": 9.4, "unit": "µM"}, {"measurement": "EC50", "setting": "[2]", "result": 3.7, "unit": "µM"}]}]}
